Data: ChEMBL document CHEMBL1764984 (J Med Chem, 2011)
Converted amounts (≈) assume the structure as drawn. Each block holds one molecule with its values, some of them ahead of it.

Assays:
Blood = assay: Inhibition of TNFalpha-induced IL1-beta production in human whole blood after 2 to 5 hrs by ELISA; format: functional, tissue-based
[1] = target: T1, Mitogen-activated protein kinase 14 (Homo sapiens, UniProt Q16539); assay: Inhibition of human recombinant p38alpha assessed as incorporation of 33P from gamma-[33P]ATP into myelin basic protein after 30 mins by scintillation counting
T1 sequence (Q16539 whole entry): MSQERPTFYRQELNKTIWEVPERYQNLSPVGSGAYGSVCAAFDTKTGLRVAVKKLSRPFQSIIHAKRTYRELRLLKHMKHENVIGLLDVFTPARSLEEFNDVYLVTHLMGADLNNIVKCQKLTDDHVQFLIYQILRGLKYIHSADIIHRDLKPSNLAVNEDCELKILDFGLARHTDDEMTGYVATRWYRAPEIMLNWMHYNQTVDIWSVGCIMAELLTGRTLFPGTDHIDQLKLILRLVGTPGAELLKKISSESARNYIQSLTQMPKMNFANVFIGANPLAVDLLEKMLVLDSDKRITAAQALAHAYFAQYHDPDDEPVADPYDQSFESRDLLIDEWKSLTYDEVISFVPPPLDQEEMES

[2] = target: T2, Atypical kinase COQ8A, mitochondrial (Homo sapiens, UniProt Q8NI60); assay: Inhibition of ADCK3
Target sequence in this assay (Q8NI60 whole entry): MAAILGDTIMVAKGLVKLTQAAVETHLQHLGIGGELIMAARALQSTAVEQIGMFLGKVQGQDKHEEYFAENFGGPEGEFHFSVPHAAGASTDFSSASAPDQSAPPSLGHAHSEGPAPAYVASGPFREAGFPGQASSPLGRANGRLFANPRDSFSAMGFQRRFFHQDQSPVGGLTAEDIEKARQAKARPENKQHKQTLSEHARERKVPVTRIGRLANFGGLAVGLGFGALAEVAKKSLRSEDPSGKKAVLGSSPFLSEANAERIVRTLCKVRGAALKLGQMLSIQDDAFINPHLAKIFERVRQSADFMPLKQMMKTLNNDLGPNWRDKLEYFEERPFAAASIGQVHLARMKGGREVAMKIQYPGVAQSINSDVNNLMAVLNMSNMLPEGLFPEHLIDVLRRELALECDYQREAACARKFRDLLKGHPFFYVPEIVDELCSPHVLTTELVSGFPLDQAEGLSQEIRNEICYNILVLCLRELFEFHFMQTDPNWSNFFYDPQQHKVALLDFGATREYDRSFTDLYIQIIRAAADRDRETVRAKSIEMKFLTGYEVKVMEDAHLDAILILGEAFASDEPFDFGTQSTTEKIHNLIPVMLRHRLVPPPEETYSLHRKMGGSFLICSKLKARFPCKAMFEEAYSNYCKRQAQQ

Cytochrome P450 2C9 = Cytochrome P450 2C9 (Homo sapiens, UniProt P11712); assay: Inhibition of human CYP2C9; format: ADME
[3] = target: Serine/threonine-protein kinase 36 (Homo sapiens, UniProt Q9NRP7); assay: Inhibition of STK36
[4] = target: T3, Epithelial discoidin domain-containing receptor 1 (Homo sapiens, UniProt Q08345); assay: Inhibition of DDR1
T3 sequence (Q08345 whole entry, the tested form may be a part): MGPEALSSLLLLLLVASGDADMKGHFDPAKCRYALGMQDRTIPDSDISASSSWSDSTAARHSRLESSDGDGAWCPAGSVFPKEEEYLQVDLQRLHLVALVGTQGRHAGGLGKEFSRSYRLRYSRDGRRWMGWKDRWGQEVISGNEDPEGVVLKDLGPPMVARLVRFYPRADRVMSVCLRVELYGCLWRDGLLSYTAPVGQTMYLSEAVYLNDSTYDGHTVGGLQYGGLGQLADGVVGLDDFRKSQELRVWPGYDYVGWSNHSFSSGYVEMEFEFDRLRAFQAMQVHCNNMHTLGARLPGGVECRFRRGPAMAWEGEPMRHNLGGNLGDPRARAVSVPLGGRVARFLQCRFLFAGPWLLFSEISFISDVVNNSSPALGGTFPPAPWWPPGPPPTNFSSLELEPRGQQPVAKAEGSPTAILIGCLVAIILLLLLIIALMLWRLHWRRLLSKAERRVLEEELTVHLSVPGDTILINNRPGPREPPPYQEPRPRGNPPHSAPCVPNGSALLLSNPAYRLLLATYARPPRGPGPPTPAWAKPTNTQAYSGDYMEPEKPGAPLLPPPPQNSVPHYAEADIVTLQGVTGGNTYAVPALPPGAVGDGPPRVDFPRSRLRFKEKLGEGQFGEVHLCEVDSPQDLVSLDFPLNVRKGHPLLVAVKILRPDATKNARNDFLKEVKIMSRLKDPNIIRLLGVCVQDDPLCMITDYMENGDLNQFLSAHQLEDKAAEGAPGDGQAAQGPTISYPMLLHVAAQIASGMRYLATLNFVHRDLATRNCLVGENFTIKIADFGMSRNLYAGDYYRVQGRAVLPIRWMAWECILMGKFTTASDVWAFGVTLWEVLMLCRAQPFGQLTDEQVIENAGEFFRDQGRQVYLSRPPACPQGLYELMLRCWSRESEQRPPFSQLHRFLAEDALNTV

[5] = target: T4, Mitogen-activated protein kinase 11 (Homo sapiens, UniProt Q15759); assay: Inhibition of P38beta
T4 sequence (Q15759 whole entry): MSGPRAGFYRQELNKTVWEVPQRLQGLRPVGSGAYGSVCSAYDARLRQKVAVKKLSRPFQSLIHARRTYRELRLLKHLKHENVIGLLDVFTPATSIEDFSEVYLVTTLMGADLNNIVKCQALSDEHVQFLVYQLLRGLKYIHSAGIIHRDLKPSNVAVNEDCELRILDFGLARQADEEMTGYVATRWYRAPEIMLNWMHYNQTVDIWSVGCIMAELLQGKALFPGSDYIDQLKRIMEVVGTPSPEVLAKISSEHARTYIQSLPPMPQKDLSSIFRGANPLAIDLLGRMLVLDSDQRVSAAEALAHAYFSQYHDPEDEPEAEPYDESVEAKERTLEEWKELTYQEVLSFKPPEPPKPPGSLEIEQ

THP-1 = assay: Inhibition of LPS-induced TNFalpha production in human THP1 cells after 2 hrs by ELISA; format: functional, cell-based; conditions: THP-1, 2 h
[6] = target: T5, Ribosomal protein S6 kinase alpha-4 (Homo sapiens, UniProt O75676); assay: Inhibition of RSK4
Target sequence in this assay (O75676 whole entry): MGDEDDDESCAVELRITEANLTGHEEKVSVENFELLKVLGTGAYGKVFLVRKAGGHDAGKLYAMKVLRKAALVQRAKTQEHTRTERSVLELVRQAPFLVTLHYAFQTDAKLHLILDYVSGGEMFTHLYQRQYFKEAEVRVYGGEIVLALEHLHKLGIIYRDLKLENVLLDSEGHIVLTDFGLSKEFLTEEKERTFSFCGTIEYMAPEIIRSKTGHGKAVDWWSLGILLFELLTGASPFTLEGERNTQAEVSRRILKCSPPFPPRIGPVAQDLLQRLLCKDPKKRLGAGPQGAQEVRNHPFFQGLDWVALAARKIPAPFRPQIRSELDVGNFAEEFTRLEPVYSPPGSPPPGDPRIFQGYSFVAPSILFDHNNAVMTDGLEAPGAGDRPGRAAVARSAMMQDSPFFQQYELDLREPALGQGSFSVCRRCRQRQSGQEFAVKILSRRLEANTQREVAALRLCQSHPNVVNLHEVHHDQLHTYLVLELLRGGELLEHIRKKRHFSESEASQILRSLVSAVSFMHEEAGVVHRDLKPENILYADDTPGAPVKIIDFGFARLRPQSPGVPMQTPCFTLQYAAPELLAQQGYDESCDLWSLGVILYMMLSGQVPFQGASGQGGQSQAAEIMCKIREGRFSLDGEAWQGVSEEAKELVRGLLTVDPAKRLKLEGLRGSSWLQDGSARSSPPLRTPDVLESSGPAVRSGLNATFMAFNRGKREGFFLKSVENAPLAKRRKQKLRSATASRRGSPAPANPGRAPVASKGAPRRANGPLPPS

[7] = Permeability of the compound from apical to basolateral side of human Caco2 cells at 10 uM after 21 days; format: ADME, cell-based; conditions: Caco-2, read-out: permeability
[8] = Clearance in cynomolgus monkey at 10 mg/kg, iv; format: ADME, organism-based, Macaca fascicularis; design: dose 10 mg/kg, route intravenous; conditions: in vivo
Rattus norvegicus [9] = assay: Inhibition of LPS-induced IL-6 production in po dosed rat serum administered 30 mins before LPS challenge measured after […] by ELISA; format: functional, organism-based
[10] = Oral bioavailability in cynomolgus monkey at 10 mg/kg; format: ADME, organism-based, Macaca fascicularis; conditions: in vivo
Cytochrome P450 2D6 = Cytochrome P450 2D6 (Homo sapiens, UniProt P10635); assay: Inhibition of human CYP2D6; format: ADME
[11] = Tmax in cynomolgus monkey at 10 mg/kg, po; format: ADME, organism-based, Macaca fascicularis; design: dose 10 mg/kg, route oral; conditions: in vivo
[12] = Half life in cynomolgus monkey at 10 mg/kg, po; format: ADME, organism-based, Macaca fascicularis; design: dose 10 mg/kg, route oral; conditions: in vivo
[13] = target: Serine/threonine-protein kinase NLK (Homo sapiens, UniProt Q9UBE8); assay: Inhibition of NLK
[14] = Aqueous solubility of the compound in phosphate buffer at pH 6.5; format: physicochemical
[15] = Plasma protein binding in cynomolgus monkey by untrafiltration method; format: ADME, cell-free, Macaca fascicularis; conditions: read-out: PPB (converted)
[16] = AUC (infinity) in cynomolgus monkey at 10 mg/kg, po; format: ADME, organism-based, Macaca fascicularis; design: time infinity, dose 10 mg/kg, route oral; conditions: plasma
[17] = target: T6, Mitogen-activated protein kinase 10 (Homo sapiens, UniProt P53779); assay: Inhibition of JNK3
T6 sequence (P53779 whole entry): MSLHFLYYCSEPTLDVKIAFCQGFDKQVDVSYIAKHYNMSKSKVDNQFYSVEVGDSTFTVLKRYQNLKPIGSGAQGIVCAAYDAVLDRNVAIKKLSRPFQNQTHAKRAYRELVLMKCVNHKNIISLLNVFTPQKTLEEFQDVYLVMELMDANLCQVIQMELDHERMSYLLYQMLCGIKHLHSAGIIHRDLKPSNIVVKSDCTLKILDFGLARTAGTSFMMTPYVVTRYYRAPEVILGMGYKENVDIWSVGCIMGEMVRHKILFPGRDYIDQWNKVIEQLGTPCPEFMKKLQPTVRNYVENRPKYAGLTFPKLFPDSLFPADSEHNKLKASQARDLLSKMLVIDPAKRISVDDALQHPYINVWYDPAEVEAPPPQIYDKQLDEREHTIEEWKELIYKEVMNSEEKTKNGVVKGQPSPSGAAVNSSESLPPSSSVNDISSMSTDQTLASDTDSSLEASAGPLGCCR

[18] = Volume of distribution at steady state in cynomolgus monkey at 10 mg/kg, iv; format: ADME, organism-based, Macaca fascicularis; design: dose 10 mg/kg, route intravenous; conditions: in vivo, read-out: Vdss
[19] = Cmax in cynomolgus monkey at 10 mg/kg, po; format: ADME, organism-based, Macaca fascicularis; design: dose 10 mg/kg, route oral; conditions: in vivo
[20] = Permeability of the compound from basolateral to apical side of human Caco2 cells at 10 uM after 21 days; format: ADME, cell-based; conditions: Caco-2, read-out: permeability
Rattus norvegicus [21] = assay: Analgesic activity in po dosed rat inflammatory yeast hyperalgesia model assessed as increase in tolerance to pressure; format: functional, organism-based; conditions: po
Rattus norvegicus [22] = assay: Inhibition of LPS-induced TNFalpha production in rat serum at 3 mg/kg, po administered 30 mins before LPS challenge measured after […] by ELISA; format: functional
[23] = target: T7, Casein kinase I isoform epsilon (Homo sapiens, UniProt P49674); assay: Inhibition of CSNK1epsilon
Target sequence in this assay (P49674 whole entry, canonical isoform): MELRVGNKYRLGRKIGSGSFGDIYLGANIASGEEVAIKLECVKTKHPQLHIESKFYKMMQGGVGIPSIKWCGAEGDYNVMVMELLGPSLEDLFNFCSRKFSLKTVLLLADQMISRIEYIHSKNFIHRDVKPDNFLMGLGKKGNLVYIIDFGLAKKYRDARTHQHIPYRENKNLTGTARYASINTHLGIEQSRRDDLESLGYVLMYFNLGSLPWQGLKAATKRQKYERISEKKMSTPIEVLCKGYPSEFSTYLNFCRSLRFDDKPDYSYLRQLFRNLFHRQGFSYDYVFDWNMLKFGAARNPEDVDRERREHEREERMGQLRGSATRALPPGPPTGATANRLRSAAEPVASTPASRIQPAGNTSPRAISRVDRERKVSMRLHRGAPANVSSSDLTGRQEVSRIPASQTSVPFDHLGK

Rattus norvegicus [24] = assay: Inhibition of LPS-induced TNFalpha production in po dosed rat serum administered 30 mins before LPS challenge measured after […] by ELISA; format: functional, organism-based
Cytochrome P450 3A4 = Cytochrome P450 3A4 (Homo sapiens, UniProt P08684); assay: Inhibition of human CYP3A4; format: ADME
Rattus norvegicus [25] = assay: Inhibition of TNF-alpha-induced IL-6 production in po dosed rat plasma administered 30 mins before TNFalpha challenge measured after 2 hrs by ELISA; format: functional, organism-based
Cytochrome P450 2C19 = Cytochrome P450 2C19 (Homo sapiens, UniProt P33261); assay: Inhibition of human CYP2C19; format: ADME
Cytochrome P450 1A2 = Cytochrome P450 1A2 (Homo sapiens, UniProt P05177); assay: Inhibition of human CYP1A2; format: ADME
[26] = target: Serine/threonine-protein kinase NLK (Homo sapiens) (UniProt Q9UBE8); assay: Inhibition of NLK at 10 uM
[27] = target: Cyclin-G-associated kinase (Homo sapiens) (UniProt O14976); assay: Inhibition of GAK at 10 uM
[28] = target: Ribosomal protein S6 kinase alpha-3 (Homo sapiens, UniProt P51812); assay: Inhibition of RSK2 at 10 uM
[29] = target: T4, Mitogen-activated protein kinase 11; assay: Inhibition of P38beta at 10 uM
[30] = target: T7, Casein kinase I isoform epsilon; conditions: 10 uM
Target sequence in this assay (P49674 whole entry, looked up, canonical isoform): as the sequence (P49674 whole entry, canonical isoform) above
Description: Inhibition of CSNK1epsilon at 10 uM

[31] = target: Serine/threonine-protein kinase 36 (Homo sapiens) (UniProt Q9NRP7); conditions: 10 uM
Description: Inhibition of STK36 at 10 uM

[32] = target: T5, Ribosomal protein S6 kinase alpha-4; assay: Inhibition of RSK4 at 10 uM
Target sequence in this assay (O75676 whole entry, looked up): as the sequence (O75676 whole entry) above

[33] = target: T2, Atypical kinase COQ8A, mitochondrial; conditions: 10 uM
Target sequence in this assay (Q8NI60 163-647 limits assumed): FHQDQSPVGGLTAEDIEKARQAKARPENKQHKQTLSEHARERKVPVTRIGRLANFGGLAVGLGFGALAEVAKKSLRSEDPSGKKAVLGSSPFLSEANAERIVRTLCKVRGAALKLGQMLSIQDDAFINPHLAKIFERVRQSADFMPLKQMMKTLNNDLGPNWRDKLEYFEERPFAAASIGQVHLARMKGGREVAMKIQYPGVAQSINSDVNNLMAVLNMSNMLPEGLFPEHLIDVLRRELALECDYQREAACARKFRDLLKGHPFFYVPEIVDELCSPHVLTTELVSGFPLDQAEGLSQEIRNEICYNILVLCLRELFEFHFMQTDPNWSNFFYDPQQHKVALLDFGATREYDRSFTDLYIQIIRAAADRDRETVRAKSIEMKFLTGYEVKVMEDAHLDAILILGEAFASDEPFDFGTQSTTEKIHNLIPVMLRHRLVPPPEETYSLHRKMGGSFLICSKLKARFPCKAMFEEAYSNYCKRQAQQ
Description: Inhibition of ADCK3 at 10 uM

[34] = target: T3, Epithelial discoidin domain-containing receptor 1; assay: Inhibition of DDR1 at 10 uM
[35] = target: T6, Mitogen-activated protein kinase 10; conditions: 10 uM
Description: Inhibition of JNK3 at 10 uM

[36] = target: Mitogen-activated protein kinase 8 (Homo sapiens) (UniProt P45983); assay: Inhibition of JNK1 at 10 uM
[37] = target: Mitogen-activated protein kinase 9 (Homo sapiens) (UniProt P45984); assay: Inhibition of JNK2 at 10 uM
[38] = target: Tyrosine-protein kinase Lck (Homo sapiens, UniProt P06239); assay: Inhibition of LCK
Tyrosine-protein kinase Lck, sequence (P06239 whole entry): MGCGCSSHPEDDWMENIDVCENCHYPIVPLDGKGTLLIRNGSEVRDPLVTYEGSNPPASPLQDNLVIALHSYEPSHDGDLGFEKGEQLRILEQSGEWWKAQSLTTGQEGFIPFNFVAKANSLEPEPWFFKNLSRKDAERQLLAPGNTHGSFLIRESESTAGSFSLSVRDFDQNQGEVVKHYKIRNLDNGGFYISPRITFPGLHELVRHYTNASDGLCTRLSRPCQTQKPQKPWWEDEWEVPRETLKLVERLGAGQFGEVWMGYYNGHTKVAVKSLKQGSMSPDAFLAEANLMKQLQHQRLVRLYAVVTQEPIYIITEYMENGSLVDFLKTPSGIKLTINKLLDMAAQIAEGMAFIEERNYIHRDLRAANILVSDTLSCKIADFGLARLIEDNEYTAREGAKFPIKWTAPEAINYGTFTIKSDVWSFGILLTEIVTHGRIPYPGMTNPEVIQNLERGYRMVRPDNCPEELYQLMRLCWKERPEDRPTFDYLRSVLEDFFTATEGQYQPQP

[39] = target: T1, Mitogen-activated protein kinase 14; assay: Inhibition of p38alpha

IC50 (Blood): 84 nM
IC50 [1]: 18 nM
Compound: O=c1[nH]c2nc(NC3CCOCC3)ncc2cc1Oc1ccc(F)cc1F

Compound: Cn1c(=O)c(Oc2ccc(F)cc2F)cc2cnc(NC3CCOCC3)nc21 [R-1487]
Kd [2]: 320 nM
IC50 (Cytochrome P450 2C9): > 40000 nM
Kd [3]: 330 nM
Kd [4]: 270 nM
Kd [5]: 29 nM
IC50 (THP-1): 47 nM
Kd [6]: 73 nM
Papp A→B at 10 µM [7]: 33 ×10⁻⁶ cm/s
clearance [8]: 3.05 mL/min/kg
EC50 (Rattus norvegicus [9]): 10 nM
ED50 (Rattus norvegicus [9]; po): 0.4 mg/kg
bioavailability [10]: 51.6%
IC50 (Cytochrome P450 2D6): > 40000 nM
Tmax [11]: 4.67 h
half-life [12]: 22.5 h
Kd [13]: 6 nM
IC50 (Blood): 170 nM
solubility [14]: 6 µg/mL (≈ 15.4 µM)
fraction unbound [15]: 0.046
AUC(0-inf) [16]: 29400 ng·h/mL
Kd [17]: 3 nM
Vd [18]: 2.73 L/kg
Cmax [19]: 1560 ng/mL
Papp B→A at 10 µM [20]: 23.7 ×10⁻⁶ cm/s
ED50 (Rattus norvegicus [21]): 5.5 mg/kg
inhibition in vivo at 3 mg/kg (Rattus norvegicus [22]): 68%
Kd [23]: > 1000 nM
EC50 (Rattus norvegicus [24]): 30 nM
ED50 (Rattus norvegicus [24]; po): 0.8 mg/kg
IC50 (Cytochrome P450 3A4): > 40000 nM
EC50 (Rattus norvegicus [25]): 20 nM
ED50 (Rattus norvegicus [25]; po): 0.4 mg/kg
IC50 (Cytochrome P450 2C19): > 40000 nM
IC50 (Cytochrome P450 1A2): > 40000 nM

Compound: Cn1c(=O)c(Oc2ccc(F)cc2F)cc2cnc(NC3CCOCC3)nc21
inhibition [26]: > 85%
inhibition [27]: > 85%
inhibition [28]: > 85%
inhibition [29]: > 85%
inhibition [30]: > 85%
inhibition [31]: > 85%
inhibition [32]: > 85%
inhibition [33]: > 85%
inhibition [34]: > 85%
inhibition [35]: > 85%
inhibition [36]: > 85%
inhibition [37]: > 85%

IC50 (Blood): 68 nM
IC50 [1]: 4 nM
Compound: Cn1c(=O)c(Oc2ccc(F)cc2F)cc2cnc(N[C@H]3CC[C@H](O)CC3)nc21

IC50 (Blood): 64.8 nM
IC50 [1]: 15 nM
Compound: Cn1c(=O)c(Oc2ccccc2F)cc2cnc(NC3CCOCC3)nc21

IC50 (Blood): 15 nM
IC50 [1]: 1 nM
Compound: CCn1c(=O)c(Oc2ccc(F)cc2F)cc2cnc(NC3CCOCC3)nc21

IC50 (Blood): 18 nM
IC50 [1]: 6 nM
Compound: CS(=O)(=O)CCCn1c(=O)c(Oc2ccc(F)cc2F)cc2cnc(NC3CCOCC3)nc21

IC50 [1]: 25 nM
Compound: Cn1c(=O)c(Oc2ccc(F)cc2F)cc2cnc(NC(C)(C)CO)nc21

IC50 (Blood): 13 nM
IC50 [1]: 9 nM
Compound: O=c1c(Oc2ccc(F)cc2F)cc2cnc(NC3CCOCC3)nc2n1C1CC1

IC50 (Blood): 769 nM
IC50 [1]: 15 nM
Compound: Cn1c(=O)c(Oc2ccc(F)cc2F)cc2cnc(NC3CCS(=O)(=O)CC3)nc21

IC50 (Blood): 407 nM
IC50 [1]: 42 nM
Compound: Cn1c(=O)c(Cc2ccccc2F)cc2cnc(NC3CCOCC3)nc21

IC50 (Blood): 189 nM
IC50 [1]: 158 nM
Compound: Cn1c(=O)c(Oc2ccc(F)cc2F)cc2cnc(NC(CO)CO)nc21

IC50 (Blood): 731 nM
IC50 [1]: 111 nM
Compound: Cn1c(=O)c(Sc2ccccc2F)cc2cnc(NC3CCOCC3)nc21

IC50 (Blood): 84 nM
IC50 [1]: 12 nM
Compound: CC(C)(O)Cn1c(=O)c(Oc2ccc(F)cc2F)cc2cnc(NC3CCOCC3)nc21

IC50 (Blood): 308 nM
IC50 [1]: 20 nM
Compound: CS(=O)(=O)CCn1c(=O)c(Oc2ccc(F)cc2F)cc2cnc(NC3CCOCC3)nc21

IC50 (Blood): 52 nM
IC50 [1]: 1 nM
Compound: CS(=O)(=O)N1CCC(n2c(=O)c(Oc3ccc(F)cc3F)cc3cnc(NC4CCOCC4)nc32)CC1

IC50 (Blood): 11 nM
IC50 [1]: 1 nM
Compound: O=c1c(Oc2ccc(F)cc2F)cc2cnc(NC3CCOCC3)nc2n1C1CCS(=O)(=O)CC1

IC50 [1]: 67 nM
Compound: Cn1c(=O)c(Oc2ccc(F)cc2F)cc2cnc(NCC(C)(C)O)nc21

Kd [38]: 0.2 nM
Kd [39]: 10 nM
Compound: CCN(CC)CCOc1ccc(Nc2ncc3c(n2)N(C)C(=O)N(c2c(Cl)cccc2Cl)C3)cc1
